# Results from patent US20220143021A1 (Cardiff Oncology, Inc., priority 2019, published 2022).
# “And” between values parts separate entries of the source, which are not always exact repeats. Equal entries are not always repeated.
# Columns and labels:
# human prostate tissues [1] = conditions: Hennenberg et al., 2018; cited from earlier work
# human prostate tissues [2] = test: organ bath, noradrenaline-induced contractions of human prostate strips
# Description: Human prostate tissues were obtained from patients undergoing radical prostatectomy for prostate cancer (n=107). Patients who underwent previous transurethral resection of the prostate (TURP) were excluded. This study was carried out in accordance with the Declaration of Helsinki of the World Medical Association, and has been approved by the ethics committee of the Ludwig-Maximilians University, Munich, Germany (Ethikkommission bei der LMU Munchen, approval number 19-737). Informed consent was obtained from all patients. According to the ethical approval, samples and data were collected and analyzed anonymously, so that no data on patients' characteristics were stored. Samples were taken immediately after prostatectomy, following macroscopical examination by an uro-pathologist. All tissues were taken from the periurethral zone, considering that most prostate cancers arise in the peripheral zone (Pradidarcheep et al., 2011; Shaikhibrahim et al., 2012). […] BPH is present in 80-83% of patients with prostate cancer (Alcaraz et al., 2009; Orsted and Bojesen, 2013). Typically, such tissues show varying content of prostate-specific antigen (PSA), and different contents of smooth muscle and glandular epithelia, reflecting that BPH is present to different degree (Wang et al., 2016a, 2016c). For macroscopic examination and sampling, the prostate was opened by a single longitudinal cut from the capsule to the urethra. Subsequently, both intersections were checked macroscopically for any obvious tumor infiltration. Because tumors are usually located to the peripheral zone, tumor infiltration in the periurethral zone (where sampling was performed) was very rare (found in less than 1% of prostates). Prostates showing tumors in the periurethral zone in macroscopic inspection were not subjected to sampling and were not included in this study. Organ bath studies were performed immediately after sampling, while samples for molecular analyses were shock frozen in liquid nitrogen and stored at −80° C.
# Prostate strips (6×3×3 mm) were mounted in 10 ml aerated (95% 02 and 5% CO2) tissue baths (Danish Myotechnology, Aarhus, Denmark), containing Krebs-Henseleit solution (37° C., pH 7.4) with following composition: 118 mM NaCl, 4.7 mM KCl, 2.55 mM CaCl2), 1.2 mM KH2PO4, 1.2 mM MgSO4, 25 mM NaHCO3, 7.5 mM glucose. In each single experiment, two from four strips obtained from the same prostate were allocated to the control group (without inhibitor or antagonist), and two others to the inhibitor/antagonist group (resulting in duplicate determination for each group in each single experiment). All four samples of one experiment were examined in four chambers of the same organ bath. Consequently, control and inhibitor curves in each series/diagram were obtained from the same prostates, but different prostates were examined for different series/diagrams. […] Only one curve was recorded with each sample, i. e. for one agonist, or for electric field stimulation (EFS).
# (§1) After mounting in organ bath chambers, preparations were stretched to 4.9 mN and left to equilibrate for 45 min. […] After the equilibration period, maximum contraction induced by 80 mM KCl was assessed. […]
# human prostate tissues [3] = test: organ bath, EFS-induced (neurogenic) contractions of human prostate strips
# Text: Patients who underwent previous transurethral resection of the prostate (TURP) were excluded. […] Informed consent was obtained from all patients. According to the ethical approval, samples and data were collected and analyzed anonymously, so that no data on patients' characteristics were stored. Samples were taken immediately after prostatectomy, following macroscopical examination by an uro-pathologist. […] For macroscopic examination and sampling, the prostate was opened by a single longitudinal cut from the capsule to the urethra. Subsequently, both intersections were checked macroscopically for any obvious tumor infiltration. […] Prostates showing tumors in the periurethral zone in macroscopic inspection were not subjected to sampling and were not included in this study. Organ bath studies were performed immediately after sampling, while samples for molecular analyses were shock frozen in liquid nitrogen and stored at −80° C.
# In each single experiment, two from four strips obtained from the same prostate were allocated to the control group (without inhibitor or antagonist), and two others to the inhibitor/antagonist group (resulting in duplicate determination for each group in each single experiment). All four samples of one experiment were examined in four chambers of the same organ bath. Consequently, control and inhibitor curves in each series/diagram were obtained from the same prostates, but different prostates were examined for different series/diagrams. […] Therefore, and considering that prostate tissues from radical prostatectomy may show considerable heterogeneity, statistical comparisons were only performed between groups within the same series (i. e. containing tissues from the same prostates for inhibitor and control group), but not between series obtained from different prostates (i. e., not across different series of organ bath experiments). Only one curve was recorded with each sample, i. e. for one agonist, or for electric field stimulation (EFS).
# Subsequently, chambers were washed three times with Krebs-Henseleit solution for a total of 30 min.
# Application of EFS simulates action potentials, resulting in the release of endogenous neurotransmitters, including noradrenaline. […] For EFS, tissue strips were placed between two parallel platinum electrodes connected to a CS4 stimulator (Danish Myotechnology). […] EFS-induced contractile responses were studied at frequencies of 2, 4, 8, 16, and 32 Hz, with train intervals of 30 s between stimulations.
# Data analyses and calculations were based on maximum peak heights of contractions. For calculation of agonist- or EFS-induced contractions, tensions were expressed as % of KCl-induced contractions, as this may correct different stromal/epithelial ratios, different smooth muscle content, varying degree of BPH, or any other heterogeneity between prostate samples and patients.
# WPMY-1 cells [4] = test: plate colony formation assay; assay type: cell-based, human; conditions: 14 days
# Description: (§2) WPMY-1 cells are an immortalized cell line obtained from human prostate stroma without prostate cancer (Webber et al., 1999). Cells were obtained from American Type Culture Collection (ATCC; Manassas, Va., USA), and kept in RPMI 1640 (Gibco, Carlsbad, Calif., USA) supplemented with 10% fetal calf serum (FCS) and 1% penicillin/streptomycin at 37° C. with 5% CO2. Before addition of onvansertib or DMSO, the medium was changed to a FCS-free medium. For Western blot analysis, cells were lyzed using radioimmunoprecipitation assay (RIPA) buffer (Sigma-Aldrich, St. Louis, Mo., USA), and removed from flasks after 15 min of incubation on ice. Cell debris was removed by centrifugation (10,000 g, 10 min, 4° C.), and different aliquots of supernatants were either subjected to protein determination, or boiled with SDS sample buffer.
# Cells were incubated at 37° C. for 14 days, then washed twice with PBS, and fixed by 2 ml of 10% trichloroacetic acid overnight (4° C.). Subsequently, all plates were washed five times with cold water, and stained with 0.4% sulforhodamine B solution (diluted in 1% acetic acid) at room temperature for 30 min. Before taking photos, all plates were labeled and washed five times with 1% acetic acid. The number of colonies containing 50 cells or more was counted under a microscope.
# [5] = in vivo; cited from earlier work
# human prostate tissues [6] = test: organ bath, methoxamine-induced contractions of human prostate strips
# Description: (§3) Human prostate tissues were obtained from patients undergoing radical prostatectomy for prostate cancer (n=107). Patients who underwent previous transurethral resection of the prostate (TURP) were excluded. This study was carried out in accordance with the Declaration of Helsinki of the World Medical Association, and has been approved by the ethics committee of the Ludwig-Maximilians University, Munich, Germany (Ethikkommission bei der LMU Munchen, approval number 19-737). Informed consent was obtained from all patients. According to the ethical approval, samples and data were collected and analyzed anonymously, so that no data on patients' characteristics were stored. […]
# (§4) Prostate strips (6×3×3 mm) were mounted in 10 ml aerated (95% 02 and 5% CO2) tissue baths (Danish Myotechnology, Aarhus, Denmark), containing Krebs-Henseleit solution (37° C., pH 7.4) with following composition: 118 mM NaCl, 4.7 mM KCl, 2.55 mM CaCl2), 1.2 mM KH2PO4, 1.2 mM MgSO4, 25 mM NaHCO3, 7.5 mM glucose. […] Only one curve was recorded with each sample, i. e. for one agonist, or for electric field stimulation (EFS).
# as §1
# human prostate tissues [7] = test: organ bath, U46619-induced contractions of human prostate strips; conditions: 100 nM onvansertib
# Description: as §3, §4, §1
# human prostate tissues [8] = test: organ bath, endothelin-1-induced contractions of human prostate strips; conditions: read-out: inhibition of endothelin-1-induced contraction
# Description: as §3, §4, §1
# WPMY-1 cells [9] = test: EdU proliferation assay; assay type: cell-based, human; conditions: 24 h
# Description: as §2
# WPMY-1 cells were plated with cell line-specific densities (50,000/well) on 16-well chambered coverslips (Thermo Scientific, Waltham, Mass., USA). […] 20 h later, cells were fixed with 3.7% formaldehyde. EdU incorporation was determined using the “EdU-Click 555” cell proliferation assay (Baseclick, Tutzing, Germany) according to the manufacturer's instructions. In this assay, incorporation of EdU into DNA is assessed by detection with fluorescing 5-carboxytetramethylrhodamine (5-TAMRA). Counterstaining of all nuclei was performed with DAPI. Cells were analyzed by fluorescence microscopy (excitation: 546 nm; emission: […]).
# human prostate tissues [10] = test: organ bath, phenylephrine-induced contractions of human prostate strips
# Description: as §3, §4, §1
# CK2 = conditions: Valsasina et al., 2012; cited from earlier work
# [11] = CCK-8 viability (cytotoxicity) assay; assay type: cell-based; conditions: human, WPMY-1 cells (immortalized prostate stromal cells), read-out: decrease of viability
# Description: as §2
# Viability of cells was assessed using the Cell Counting Kit-8 (CCK-8) (Sigma-Aldrich, St. Louis, Mo., USA). […] Subsequently, cells were grown for different periods (24, 48, 72 h). Separate controls were performed for each period. At the end of this period, 10 μl of [2-(2-methoxy-4-nitrophenyl)-3-(4-nitrophenyl)-5-(2,4-disulfophenyl)-2H-tetrazolium monosodium salt (WST-8) from CCK-8 was added, and absorbance in each well was measured at 450 nm after incubation for 2 h at 37° C.
# [12] = humans, phase I, even by the lowest dosages tested (Weiss et al., 2018); cited from earlier work
# 296 kinases = conditions: cited from earlier work
# human prostate tissues [13] = test: organ bath, ATP-induced contractions of human prostate strips; conditions: read-out: inhibition of ATP-induced contraction
# Description: as §3, §4, §1
# [14] = washout of onvansertib (100 nM) for 30 min
smiles,measurement,setting,value
COc1ccc(CCNCc2ccc(OCc3ccc(Cl)nc3)c(OC)c2)cc1OC [SBE 13],effect on endothelin-1-induced contractions of human prostate tissues,human prostate tissues [1],did not change
"C[C@H](Cc1cc2c(c(C(N)=O)c1)N(CCCO)CC2)NCCOc1ccccc1OCC(F)(F)F [silodosin, 1-(3-hydroxypropyl)-5-[(2 R)-2-[2-[2-(2,2,2-trifluoroethoxy)phenoxy]ethylamino]propyl]-2,3-dihydroindole-7-carboxamide, reference compound]",inhibition at 0.1 µM,"human prostate tissues [2]; Homo sapiens, 100 μM noradrenaline, 100 nM silodosin",84 ± 4.99%
same,"inhibition of EFS-induced contraction by add-on of silodosin, compared to onvansertib alone","human prostate tissues [3]; 32 Hz, silodosin 100 nM combined with onvansertib 100 nM",68% and 68±12.7%
same,inhibition at 0.1 µM,"human prostate tissues [3]; Homo sapiens, 32 Hz, 100 nM silodosin",47%
NC(=O)c1sc2c([N+](=O)[O-])cc(C(F)(F)F)cc2[n+]1[O-] [cyclapolin],effect on endothelin-1-induced contractions of human prostate tissues,human prostate tissues [1],did not change
"CCOc1ccccc1OCCN[C@H](C)Cc1ccc(OC)c(S(N)(=O)=O)c1 [tamsulosin, 5-[(2 R)-2-[2-(2-ethoxyphenoxy)ethylamino]propyl]-2-methoxybenzenesulfonamide, reference compound]",inhibition at 0.3 µM,"human prostate tissues [2]; Homo sapiens, 100 μM noradrenaline, 300 nM tamsulosin",93 ± 3.5%
same,"inhibition of EFS-induced contraction by add-on of tamsulosin, compared to onvansertib alone","human prostate tissues [3]; 32 Hz, tamsulosin 300 nM combined with onvansertib 100 nM",68% and 68±12.2%
same,inhibition at 0.3 µM,"human prostate tissues [3]; Homo sapiens, 32 Hz, 300 nM tamsulosin",48%
"CN1CCN(c2ccc(OC(F)(F)F)c(Nc3ncc4c(n3)-c3c(c(C(N)=O)nn3CCO)CC4)c2)CC1 [onvansertib, 1-(2-hydroxyethyl)-8-{[5-(4-methylpiperazin-1-yl)-2-(trifluoromethoxy)phenyl]amino}-4,5-dihydro-1H-pyrazolo[4,3-h] quinazoline-3-carboxamide]",inhibition at 0.1 µM,human prostate tissues [2]; Homo sapiens,45 ± 9.7%
same,inhibition at 1 µM,human prostate tissues [2]; Homo sapiens,41 ± 6.2%
same,noradrenaline-induced contractions after washout versus DMSO,human prostate tissues [2]; [14],did not differ
same,decrease of colony formation,WPMY-1 cells [4]; 10 nM,39±4.5%
same,decrease of colony formation,WPMY-1 cells [4]; 50 nM,89±1.9%
same,decrease of colony formation,WPMY-1 cells [4]; 100 nM,97±0.4%
same,oral bioavailability,[5],good oral bioavailability
same,inhibition at 0.1 µM,human prostate tissues [6],43 ± 19.4%
same,effect on U46619-induced contractions,human prostate tissues [7],did not change
same,inhibition at 0.1 µM,human prostate tissues [8],45 ± 6.6%
same,"inhibition of EFS-induced contraction by add-on of onvansertib, compared to silodosin alone","human prostate tissues [3]; 32 Hz, onvansertib 100 nM combined with silodosin 100 nM",61% and 61±9.8%
same,"inhibition of EFS-induced contraction by add-on of onvansertib, compared to tamsulosin alone","human prostate tissues [3]; 32 Hz, onvansertib 100 nM combined with tamsulosin 300 nM",59% and 59±11.5%
same,inhibition at 0.1 µM,human prostate tissues [3]; Homo sapiens,34%
same,inhibition at 1 µM,human prostate tissues [3]; Homo sapiens,34%
same,EFS-induced contractions after washout versus DMSO,human prostate tissues [3]; [14],did not differ
same,decrease of percentage of proliferating cells,WPMY-1 cells [9]; 10 nM,18±0.1%
same,decrease of percentage of proliferating cells,WPMY-1 cells [9]; 50 nM,24±2.1%
same,decrease of percentage of proliferating cells,WPMY-1 cells [9]; 100 nM,35±2.0%
same,inhibition at 0.1 µM,human prostate tissues [10],47 ± 16.2%
same,IC50,CK2,826 nM
same,"cytotoxicity at 24 h, 10 nM","[11]; 10 nM, 24 h",15 ± 8.8%
same,"cytotoxicity at 48 h, 10 nM","[11]; 10 nM, 48 h",28 ± 8.3%
same,"cytotoxicity at 72 h, 10 nM","[11]; 10 nM, 72 h",40 ± 4.4%
same,"cytotoxicity at 24 h, 100 nM","[11]; 100 nM, 24 h",63 ± 2.2%
same,"cytotoxicity at 48 h, 100 nM","[11]; 100 nM, 48 h",86 ± 1.9%
same,"cytotoxicity at 72 h, 100 nM","[11]; 100 nM, 72 h",89 ± 1.4%
same,plasma concentrations,[12],three-digit nanomolar range
same,kinases inhibited,296 kinases; tested at 100 nM against 296 kinases,inhibition only of PLK1
same,number of kinases with decreases in activities (<50%),"296 kinases; tested at 1 μM against 296 kinases, including PLK1",11
same,inhibition at 0.1 µM,human prostate tissues [13],51 ± 18.6%
